Measurements: the NIST ThermoML archive (doi:10.1021/je060271a)

Details: 303.16 K, Liquid, Vibrating tube method

CCCC(=O)OCC(COC(=O)CCC)(COC(=O)CCC)COC(=O)CCC [pentaerythritol tetrabutyrate]
Details	mass density [kg/m3]
6790.5 kPa	1046.6
6817.3 kPa	1046.7
6849.6 kPa	1046.6
6876.7 kPa	1046.6
6909 kPa	1046.7
6936.8 kPa	1046.6
6965.3 kPa	1046.7
6993.5 kPa	1046.7
7274.1 kPa	1047
7311.4 kPa	1046.9
7343 kPa	1046.9
7374.1 kPa	1046.9
7412.9 kPa	1047
7446.2 kPa	1047
7479.9 kPa	1047.1
7515.1 kPa	1047
7541.7 kPa	1047.1
7566.7 kPa	1047.1
7596.6 kPa	1047.2
7622.5 kPa	1047.1
7647.8 kPa	1047.1
7673.7 kPa	1047.1
7703.6 kPa	1047.1
7729.5 kPa	1047.2
7755.5 kPa	1047.2
7786.9 kPa	1047.3
7813.7 kPa	1047.3
7840.6 kPa	1047.2
7867.9 kPa	1047.3
7895 kPa	1047.2
7927.7 kPa	1047.2
7955 kPa	1047.3
7982.8 kPa	1047.3
8016.1 kPa	1047.4
8044.7 kPa	1047.3
8073.5 kPa	1047.3
8102.7 kPa	1047.4
8125 kPa	1047.5
8147.9 kPa	1047.5
8175.2 kPa	1047.5
8198.5 kPa	1047.5
8222.3 kPa	1047.4
8245.7 kPa	1047.6
8273.3 kPa	1047.4
8297.3 kPa	1047.5
8325.9 kPa	1047.5
8350.8 kPa	1047.6
8373.4 kPa	1047.6
8504.8 kPa	1047.7
8527.9 kPa	1047.7
8547 kPa	1047.6
8565.8 kPa	1047.7
8588.8 kPa	1047.8
8607.6 kPa	1047.8
8630.3 kPa	1047.7
8649.3 kPa	1047.8
8672.8 kPa	1047.8
8693.1 kPa	1047.8
8716 kPa	1047.9
8735.5 kPa	1047.8
8759.5 kPa	1047.9
8783.6 kPa	1047.9
8803.1 kPa	1047.9
8823.4 kPa	1047.9
8847.6 kPa	1047.9
8867.8 kPa	1048
8892.1 kPa	1047.9
8916.2 kPa	1047.9
8936.4 kPa	1047.9
8960.7 kPa	1048
8981.7 kPa	1047.9
9006.9 kPa	1047.9
9027.7 kPa	1048
9053.1 kPa	1047.9
9078.7 kPa	1048.1
9099.8 kPa	1048
9121 kPa	1048.1
9146.6 kPa	1048
9172.2 kPa	1048.1
9193.2 kPa	1048.1
9244.7 kPa	1048.2
9266.6 kPa	1048.2
9293.3 kPa	1048.3
9315.9 kPa	1048.3
9343.1 kPa	1048.2
9366.4 kPa	1048.3
9391.5 kPa	1048.3
9419 kPa	1048.4
9442.1 kPa	1048.2
9469.3 kPa	1048.3
9492.3 kPa	1048.3
9519.7 kPa	1048.4
9547.7 kPa	1048.4
9571.3 kPa	1048.5
9599.9 kPa	1048.3
9623.9 kPa	1048.5
9652 kPa	1048.3
9680.6 kPa	1048.5
9705 kPa	1048.4
9730.4 kPa	1048.5
9759.3 kPa	1048.5
9783.6 kPa	1048.5
9812.9 kPa	1048.6
9843 kPa	1048.5
9868 kPa	1048.4
9898.3 kPa	1048.5
9923.1 kPa	1048.5
9953.2 kPa	1048.6
9984.1 kPa	1048.6
10010 kPa	1048.7
10041 kPa	1048.7
10067 kPa	1048.7
10100 kPa	1048.8
10126 kPa	1048.6
10159 kPa	1048.7
10186 kPa	1048.8
10218 kPa	1048.7
10245 kPa	1048.7
10278 kPa	1048.8
10305 kPa	1048.7
10337 kPa	1048.9
10371 kPa	1048.7
10399 kPa	1048.8
10432 kPa	1048.9
10461 kPa	1048.9
10496 kPa	1048.9
10525 kPa	1048.8
10560 kPa	1048.9
10589 kPa	1049
10624 kPa	1049
10658 kPa	1049.1
10687 kPa	1049
10723 kPa	1049.1
10753 kPa	1049
10789 kPa	1049.2
10820 kPa	1049.1
10857 kPa	1049.1
10894 kPa	1049.1
10924 kPa	1049.2
10961 kPa	1049.3
10993 kPa	1049.2
11031 kPa	1049.3
11063 kPa	1049.3
11101 kPa	1049.3
11133 kPa	1049.4
11171 kPa	1049.3
11210 kPa	1049.3
11243 kPa	1049.3
11283 kPa	1049.4
11317 kPa	1049.5
11359 kPa	1049.5
11394 kPa	1049.4
11436 kPa	1049.6
11472 kPa	1049.6
11511 kPa	1049.6
11541 kPa	1049.5
11577 kPa	1049.6
11607 kPa	1049.6
11641 kPa	1049.7
11666 kPa	1049.6
11688 kPa	1049.6
11714 kPa	1049.7
11736 kPa	1049.8
11763 kPa	1049.7
11789 kPa	1049.7
11811 kPa	1049.8
11838 kPa	1049.7
11865 kPa	1049.9
11888 kPa	1049.8
11910 kPa	1049.8
11936 kPa	1049.9
11964 kPa	1049.8
11987 kPa	1049.8
12015 kPa	1049.9
12038 kPa	1049.9
12068 kPa	1049.8
12093 kPa	1049.9
12117 kPa	1050
12145 kPa	1050
12173 kPa	1050
12197 kPa	1050
12221 kPa	1050
12250 kPa	1050.1
12278 kPa	1050
12302 kPa	1050.2
12331 kPa	1050.1
12356 kPa	1050.1
12385 kPa	1050.2
12416 kPa	1050.1
12441 kPa	1050.1
12466 kPa	1050.1
12496 kPa	1050.2
12521 kPa	1050.1
12551 kPa	1050.3
12576 kPa	1050.2
12607 kPa	1050.3
12637 kPa	1050.3
12663 kPa	1050.3
12694 kPa	1050.2
12720 kPa	1050.2
12751 kPa	1050.3
12782 kPa	1050.3
12808 kPa	1050.4
12840 kPa	1050.4
12867 kPa	1050.4
12899 kPa	1050.5
12926 kPa	1050.4
12959 kPa	1050.5
12986 kPa	1050.6
13019 kPa	1050.6
13051 kPa	1050.6
13078 kPa	1050.5
13111 kPa	1050.6
13173 kPa	1050.6
13201 kPa	1050.6
13235 kPa	1050.5
13264 kPa	1050.6
13297 kPa	1050.5
13332 kPa	1050.7
13360 kPa	1050.6
13395 kPa	1050.8
13424 kPa	1050.7
13459 kPa	1050.9
13493 kPa	1050.9
13522 kPa	1050.8
13558 kPa	1050.8
13589 kPa	1050.9
13625 kPa	1050.9
13656 kPa	1050.9
13693 kPa	1050.9
13723 kPa	1051
13761 kPa	1051
13791 kPa	1050.9
13829 kPa	1050.9
13859 kPa	1051.1
13897 kPa	1051
13934 kPa	1051
13966 kPa	1050.9
14003 kPa	1051.1
14035 kPa	1051.2
14072 kPa	1051.1
14111 kPa	1051.1
14144 kPa	1051.1
14184 kPa	1051.2
14217 kPa	1051.3
14257 kPa	1051.4
14291 kPa	1051.4
14332 kPa	1051.2
14367 kPa	1051.3
14409 kPa	1051.4
14443 kPa	1051.4
14483 kPa	1051.4
14513 kPa	1051.5
14547 kPa	1051.5
14581 kPa	1051.5
14609 kPa	1051.5
14643 kPa	1051.4
14672 kPa	1051.4
14706 kPa	1051.5
14740 kPa	1051.5
14770 kPa	1051.6
14804 kPa	1051.6
14839 kPa	1051.7
14868 kPa	1051.5
14907 kPa	1051.6
14937 kPa	1051.7
14972 kPa	1051.7
15002 kPa	1051.8
15038 kPa	1051.9
15069 kPa	1051.7
15106 kPa	1051.8
15136 kPa	1051.8
15174 kPa	1051.7
15210 kPa	1051.9
15242 kPa	1051.9
15279 kPa	1051.8
15312 kPa	1051.9
15345 kPa	1051.9
15384 kPa	1052.1
15415 kPa	1052
15453 kPa	1052
15492 kPa	1052
15525 kPa	1052.1
15564 kPa	1052.2
15597 kPa	1052.1
15637 kPa	1052.1
15671 kPa	1052.1
15710 kPa	1052.1
15743 kPa	1052.1
15783 kPa	1052.3
15823 kPa	1052.2
15857 kPa	1052.2
15897 kPa	1052.3
